Data: patent publication US8309558B2, “Compounds for the treatment of hepatitis C” (Bristol-Myers Squibb Company, priority 2008, dated 2012)
Like-named read-outs stand apart in the source and are kept apart here.

How the values were obtained:
[1] = molecular target: T1, HCV NS5B RdRp genotype 1b (Hepatitis C virus genotype 1b, UniProt Q9WMX2); assay: Standard HCV NS5B RdRp enzyme assay; format: biochemical; conditions: HCV NS5B RdRp genotype 1b, read-out: IC50
T1 construct: The protein was expressed with an 18 amino acid C-terminal truncation to enhance the solubility; made in house; host or cells: E. coli BL21(DE3), pET21a vector
T1 sequence (Q9WMX2 2420-2992): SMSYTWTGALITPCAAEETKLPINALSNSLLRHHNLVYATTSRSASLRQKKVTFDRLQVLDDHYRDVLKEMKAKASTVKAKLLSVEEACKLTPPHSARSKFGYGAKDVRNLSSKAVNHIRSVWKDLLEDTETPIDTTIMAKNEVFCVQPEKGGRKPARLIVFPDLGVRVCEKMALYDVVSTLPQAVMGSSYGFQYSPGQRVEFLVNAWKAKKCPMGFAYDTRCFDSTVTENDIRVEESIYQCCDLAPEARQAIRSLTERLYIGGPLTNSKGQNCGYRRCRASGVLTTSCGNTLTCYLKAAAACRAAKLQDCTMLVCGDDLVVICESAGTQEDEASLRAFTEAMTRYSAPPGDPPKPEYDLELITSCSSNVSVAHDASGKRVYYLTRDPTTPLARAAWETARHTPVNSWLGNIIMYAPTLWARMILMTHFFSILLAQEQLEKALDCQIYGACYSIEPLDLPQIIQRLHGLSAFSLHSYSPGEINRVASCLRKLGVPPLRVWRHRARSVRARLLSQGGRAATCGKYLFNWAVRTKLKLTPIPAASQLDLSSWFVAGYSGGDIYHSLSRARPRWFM
Procedure: HCV NS5B RdRp cloning, expression, and purification. The cDNA encoding the NS5B protein of HCV, genotype 1b, was cloned into the pET21a expression vector. The protein was expressed with an 18 amino acid C-terminal truncation to enhance the solubility. The E. coli competent cell line BL21(DE3) was used for expression of the protein. Cultures were grown at 37° C. for ˜4 hours until the cultures reached an optical density of 2.0 at 600 nm. The cultures were cooled to 20° C. and induced with 1 mM IPTG. Fresh ampicillin was added to a final concentration of 50 μg/ml and the cells were grown overnight at 20° C.
Cell pellets (3 L) were lysed for purification to yield 15-24 mgs of purified NS5B. The lysis buffer consisted of 20 mM Tris-HCl, pH 7.4, 500 mM NaCl, 0.5% triton X-100, 1 mM DTT, 1 mM EDTA, 20% glycerol, 0.5 mg/ml lysozyme, 10 mM MgCl2, 15 ug/ml deoxyribonuclease I, and Complete TM protease inhibitor tablets (Roche). After addition of the lysis buffer, frozen cell pellets were resuspended using a tissue homogenizer. To reduce the viscosity of the sample, aliquots of the lysate were sonicated on ice using a microtip attached to a Branson sonicator. The sonicated lysate was centrifuged at 100,000×g for 1 hr at 4° C. and filtered through a 0.2 μm filter unit (Corning).
The protein was purified using three sequential chromatography steps: Heparin sepharose CL-6B, polyU sepharose 4B, and Hitrap SP sepharose (Pharmacia). The chromatography buffers were identical to the lysis buffer but contained no lysozyme, deoxyribonuclease I, MgC12 or protease inhibitor and the NaCl concentration of the buffer was adjusted according to the requirements for charging the protein onto the column. Each column was eluted with a NaCl gradient which varied in length from 5-50 column volumes depending on the column type. After the final chromatography step, the resulting purity of the enzyme is >90% based on SDS-PAGE analysis. The enzyme was aliquoted and stored at −80° C.
Standard HCV NS5B RdRp enzyme assay. HCV RdRp genotype 1b assays were run in a final volume of 60 μl in 96 well plates (Costar 3912). The assay buffer composed of 20 mM Hepes, pH 7.5, 2.5 mM KCl, 2.5 mM MgCl2, 1 mM DTT, 1.6 U RNAse inhibitor (Promega N2515), 0.1 mg/ml BSA (Promega R3961), and 2% glycerol. All compounds were serially diluted (3-fold) in DMSO and diluted further in water such that the final concentration of DMSO in the assay was 2%. HCV RdRp genotype 1b enzyme was used at a final concentration of 28 nM. A polyA template was used at 6 nM, and a biotinylated oligo-dT12 primer was used at 180 nM final concentration. Template was obtained commercially (Amersham 27-4110). Biotinylated primer was prepared by Sigma Genosys. 3H-UTP was used at 0.6 μCi (0.29 μM total UTP). Reactions were initiated by the addition of enzyme, incubated at 30° C. for 60 min, and stopped by adding 25 μl of 50 mM EDTA containing SPA beads (4 μg/μl, Amersham RPNQ 0007). Plates were read on a Packard Top Count NXT after >1 hr incubation at room temperature.
IC50 values for compounds were determined using seven different [I]. IC50 values were calculated from the inhibition using the formula y=A+((B−A)/(1+((C/x)^D))).

HCV replicon cells = assay: HCV replicon FRET / luciferase assay (96-well plates); format: cell-based; conditions: Hepatitis C virus, HCV replicon, read-out: EC50
Procedure, shortened: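 HCV replicon cells (with or without Renilla luciferase reporter) were plated with titrated compounds at 37 °C. After Alamar blue toxicity reading, cells were lysed in reagent containing 20 μM EDANS/DABCYL NS3 protease FRET peptide and 150 mM NaCl, read kinetically at 340/490 nm, or assayed by Dual-Glo luciferase.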

[2] = untitled table after Table 1b, values without asterisk

Compound	IC50 ([1]; Table 1a) [nM]	EC50 (HCV replicon cells; Table 1a) [nM]	also measured
CNC(=O)c1c(-c2ccc(F)cc2)oc2ccc(-c3cc(C(=O)NC4(c5nnc(-c6cccnc6)[nH]5)CC4)ccc3C)cc12			IC50 ([1]; Table 1b): < 250 nM; EC50 (HCV replicon cells; Table 1b): < 250 nM
CNC(=O)c1c(-c2ccc(F)cc2)oc2ccc(-c3cccc(C(=O)NC(C)(C)CO)c3)cc12	< 250	< 250	
CNC(=O)c1c(-c2ccc(F)cc2)oc2ccc(-c3ccc(C(=O)NC(C)(C)C)cc3)cc12	1000 to 10000	250 to 1000	
CNC(=O)c1c(-c2ccc(F)cc2)oc2ccc(-c3ccc(C(=O)NCCc4ccc(F)cc4)cc3)cc12	> 10000	1000 to 10000	
CNC(=O)c1c(-c2ccc(F)cc2)oc2ccc(-c3cccc(C(=O)NCCOC)c3)cc12 [drawing 615]			IC50 ([1]; untitled table after Table 1b): 1710 nM; EC50 (HCV replicon cells; [2]): 1340 nM
CNC(=O)c1c(-c2ccc(F)cc2)oc2ccc(-c3ccc(S(=O)(=O)NC)cc3)cc12	> 10000	1000 to 10000	
CNC(=O)c1c(-c2ccc(F)cc2)oc2ccc(-c3cccc(C(=O)N4CCCCC4)c3)cc12	250 to 1000	1000 to 10000	
CNC(=O)c1c(-c2ccc(F)cc2)oc2cc(N(CCO)S(C)(=O)=O)c(-c3cccc(C(=O)NC(C)(C)C(=O)Nc4cc(C)no4)c3)cc12			IC50 ([1]; Table 1b): < 250 nM; EC50 (HCV replicon cells; Table 1b): < 250 nM
CNC(=O)c1c(-c2ccc(F)cc2)oc2ccc(-c3cccc(C(=O)N4CCCC4C)c3)cc12 (stereo not drawn)	250 to 1000	1000 to 10000	
CCC(C)(C)NC(=O)c1cccc(-c2ccc3oc(-c4ccc(F)cc4)c(C(=O)NC)c3c2)c1	< 250	< 250	
CNC(=O)c1c(-c2ccc(F)cc2)oc2ccc(-c3cc(C(=O)NC4(c5ccccn5)CC4)c(OCc4cnccn4)cc3C)cc12 [drawing 711]			IC50 ([1]; second table titled Table 1d (numbers)): 2.1 nM; EC50 (HCV replicon cells; 24 h, second table titled Table 1d (numbers)): 1 nM
CNC(=O)c1c(-c2ccc(F)cc2)oc2ccc(-c3ccc(CO)cc3)cc12	> 10000	250 to 1000	
CNC(=O)c1c(-c2ccc(F)cc2)oc2ccc(-c3cc(C(=O)NC4(c5cnc(C)cn5)CC4)ccc3C)c(F)c12			IC50 ([1]; Table 1d (class symbols)): 1 to 250 nM; EC50 (HCV replicon cells; 24 h, Table 1d (class symbols)): 1 to 250 nM
CNC(=O)c1c(-c2ccc(F)cc2)oc2ccc(-c3cc(C(=O)NC4(c5ccc(F)cc5)CC4)ccc3C)cc12			IC50 ([1]; Table 1b): < 250 nM; EC50 (HCV replicon cells; Table 1b): < 250 nM
CNC(=O)c1c(-c2ccc(F)cc2)oc2ccc(-c3cccc(C(=O)NC(CO)CO)c3)cc12	1000 to 10000	> 10000	
CNC(=O)c1c(-c2ccc(F)cc2)oc2ccc(-c3cccc(C(=O)Nc4ccc(C)cn4)c3)cc12	< 250	< 250	
CCn1nccc1NC(=O)c1cccc(-c2ccc3oc(-c4ccc(F)cc4)c(C(=O)NC)c3c2)c1	250 to 1000	250 to 1000	
CNC(=O)c1c(-c2ccc(F)cc2)oc2cc(NS(C)(=O)=O)c(-c3cc(C(=O)NC4(c5ccccc5)CC4)ccc3F)cc12			IC50 ([1]; Table 1b): < 250 nM; EC50 (HCV replicon cells; Table 1b): < 250 nM
CNC(=O)c1c(-c2ccc(F)cc2)oc2ccc(-c3cccc(C(=O)Nc4cccnc4)c3)cc12	< 250	< 250	
CNC(=O)c1c(-c2ccc(F)cc2)oc2ccc(-c3cccc(C(=O)Nc4c(O)ncnc4O)c3)cc12	250 to 1000	> 10000	

Compound	IC50 ([1]; Table 1a) [nM]	EC50 (HCV replicon cells; Table 1a) [nM]	also measured
CNC(=O)c1c(-c2ccc(F)cc2)oc2ccc(-c3cccc(C(=O)N(C)c4ccncc4)c3)cc12	1000 to 10000	> 10000	
CNC(=O)c1c(-c2ccc(F)cc2)oc2ccc(-c3ccc(/C=C/C(=O)O)cc3)cc12	1000 to 10000	1000 to 10000	
CNC(=O)c1c(-c2ccc(F)cc2)oc2ccc(-c3cc(C(=O)NC4(c5cn(C)cn5)CC4)ccc3C)cc12			IC50 ([1]; Table 1d (class symbols)): < 20 nM; EC50 (HCV replicon cells; 24 h, Table 1d (class symbols)): 1 to 250 nM
CNC(=O)c1c(-c2ccc(F)cc2)oc2ccc(-c3cccc(C(=O)N4CCCC4)c3)cc12	250 to 1000	250 to 1000	
CNC(=O)c1c(-c2ccc(F)cc2)oc2ccc(-c3cccc(C(=O)NC(C)(C)C(=O)Nc4cc(C)on4)c3)cc12			IC50 ([1]; Table 1b): < 250 nM; EC50 (HCV replicon cells; Table 1b): < 250 nM
CNC(=O)c1c(-c2ccc(F)cc2)oc2ccc(-c3cccc(C(=O)N[C@@H](C)C(=O)NC)c3)cc12	250 to 1000	1000 to 10000	
CCC[C@H](CO)NC(=O)c1cccc(-c2ccc3oc(-c4ccc(F)cc4)c(C(=O)NC)c3c2)c1 [drawing 617]			IC50 ([1]; untitled table after Table 1b): 1150 nM; EC50 (HCV replicon cells; [2]): 1390 nM
CCCOc1cc(C)c(-c2ccc3oc(-c4ccc(F)cc4)c(C(=O)NC)c3c2)cc1C(=O)NC1(c2ccccn2)CC1			IC50 ([1]; Table 1d (class symbols)): 1 to 250 nM; EC50 (HCV replicon cells; 24 h, Table 1d (class symbols)): 1 to 250 nM
CNC(=O)c1c(-c2ccc(F)cc2)oc2ccc(-c3cc(C(=O)NC4(c5ccccc5)CC4)ccc3OCCN)cc12			IC50 ([1]; Table 1b): < 250 nM; EC50 (HCV replicon cells; Table 1b): < 250 nM
CNC(=O)c1c(-c2ccc(F)cc2)oc2ccc(-c3cccc(C(=O)N[C@@H](CO)C(C)C)c3)cc12 [drawing 235]	250 to 1000	1000 to 10000	
CNC(=O)c1c(-c2ccc(F)cc2)oc2ccc(-c3cccc(C(=O)NC4(c5ccccn5)CC4)c3)cc12	< 250	< 250	
CNC(=O)c1c(-c2ccc(F)cc2)oc2ccc(-c3ccc(C(=O)NCCNC(C)=O)cc3)cc12	> 10000	> 10000	
CNC(=O)c1c(-c2ccc(F)cc2)oc2ccc(-c3cccc(C(=O)N4CCC(c5ccc(F)cc5)C4)c3)cc12 (stereo not drawn)	250 to 1000	250 to 1000	
CNC(=O)c1c(-c2ccc(F)cc2)oc2ccc(-c3cccc(C(=O)N[C@@H](CO)C(N)=O)c3)cc12	1000 to 10000	> 10000	
CNC(=O)c1c(-c2ccc(F)cc2)oc2ccc(-c3cccc(C(=O)NC4(C(=O)NS(=O)(=O)C5CC5)CC4)c3)cc12	< 250	> 10000	
CNC(=O)c1c(-c2ccc(F)cc2)oc2ccc(-c3cccc(C(=O)Nc4ccccc4Cl)c3)cc12	1000 to 10000	1000 to 10000	
CNC(=O)c1c(-c2ccc(F)cc2)oc2ccc(-c3cccc(C(=O)Nc4cc(C)nn4C)c3)cc12	< 250	< 250	
C#CCNC(=O)C1(NC(=O)c2ccc(C)c(-c3ccc4oc(-c5ccc(F)cc5)c(C(=O)NC)c4c3)c2)CC1			IC50 ([1]; Table 1b): < 250 nM; EC50 (HCV replicon cells; Table 1b): < 250 nM
CNC(=O)c1c(-c2ccc(F)cc2)oc2ccc(-c3cccc(CO)c3)cc12	> 10000	> 10000	
